Source: paper PMC6407917, “Identification of GSK3186899/DDD853651 as a Preclinical Development Candidate for the Treatment of Visceral Leishmaniasis” (Journal of Medicinal Chemistry, 2018)
Where two headings read alike, the source gives them in different places. Each block holds one compound with its values, some of them ahead of it.

Columns and labels:
CSNK1E = CSNK1E (Homo sapiens, UniProt P49674); test: biochemical; set-up: species or system HEK293/K-562/placenta mixed human extract; Kinobeads chemoproteomic competition binding, quantified by TMT LC-MS/MS, dose response up to 20 uM
MAPKAPK5 = MAPKAPK5 (Homo sapiens, UniProt Q8IW41); test: biochemical; set-up: species or system HEK293/K-562/placenta mixed human extract; Kinobeads chemoproteomic competition binding, quantified by TMT LC-MS/MS, dose response up to 20 uM
STK38L = STK38L (Homo sapiens, UniProt Q9Y2H1); test: biochemical; set-up: species or system HEK293/K-562/placenta mixed human extract; Kinobeads chemoproteomic competition binding, quantified by TMT LC-MS/MS, dose response up to 20 uM
CDC7 = CDC7 (Homo sapiens, UniProt O00311); test: biochemical; set-up: species or system HEK293/K-562/placenta mixed human extract; Kinobeads chemoproteomic competition binding, quantified by TMT LC-MS/MS, dose response up to 20 uM
CHEK2 [1] = biological target: T1, CHEK2 (Homo sapiens, UniProt O96017); test: biochemical; set-up: species or system HEK293/K-562/placenta mixed human extract; Kinobeads chemoproteomic competition binding, quantified by TMT LC-MS/MS, dose response up to 20 uM
CIT = CIT (Homo sapiens, UniProt O14578); test: biochemical; set-up: species or system HEK293/K-562/placenta mixed human extract; Kinobeads chemoproteomic competition binding, quantified by TMT LC-MS/MS, dose response up to 20 uM
hERG = biological target: T2, hERG (Homo sapiens, UniProt Q12809); test: in vitro hERG assay, standard protocol; assay type: cell-based; settings: read-out: 1
T2 construct: gene KCNH2; in vitro hERG assay, standard protocol
Text: in vitro hERG assay, standard protocol on hERG

BMX = BMX (Homo sapiens, UniProt P51813); test: biochemical; set-up: species or system HEK293/K-562/placenta mixed human extract; Kinobeads chemoproteomic competition binding, quantified by TMT LC-MS/MS, dose response up to 20 uM
MAP2K3 = MAP2K3 (Homo sapiens, UniProt P46734); test: biochemical; set-up: species or system HEK293/K-562/placenta mixed human extract; Kinobeads chemoproteomic competition binding, quantified by TMT LC-MS/MS, dose response up to 20 uM
TNK1 = TNK1 (Homo sapiens, UniProt Q13470); test: biochemical; set-up: species or system HEK293/K-562/placenta mixed human extract; Kinobeads chemoproteomic competition binding, quantified by TMT LC-MS/MS, dose response up to 20 uM
TNIK = TNIK (Homo sapiens, UniProt Q9UKE5); test: biochemical; set-up: species or system HEK293/K-562/placenta mixed human extract; Kinobeads chemoproteomic competition binding, quantified by TMT LC-MS/MS, dose response up to 20 uM
FYN = FYN (Homo sapiens, UniProt P06241); test: biochemical; set-up: species or system HEK293/K-562/placenta mixed human extract; Kinobeads chemoproteomic competition binding, quantified by TMT LC-MS/MS, dose response up to 20 uM
PKN1 = PKN1 (Homo sapiens, UniProt Q16512); test: biochemical; set-up: species or system HEK293/K-562/placenta mixed human extract; Kinobeads chemoproteomic competition binding, quantified by TMT LC-MS/MS, dose response up to 20 uM
TYRO3 = TYRO3 (Homo sapiens, UniProt Q06418); test: biochemical; set-up: species or system HEK293/K-562/placenta mixed human extract; Kinobeads chemoproteomic competition binding, quantified by TMT LC-MS/MS, dose response up to 20 uM
CHEK2 [2] = biological target: T1, CHEK2; test: biochemical; set-up: species or system HEK293/K-562/placenta mixed human extract; Kinobeads chemoproteomic competition binding, quantified by TMT LC-MS/MS, dose response up to 20 uM; remark: listed apart in the source
NEK6 = NEK6 (Homo sapiens, UniProt Q9HC98); test: biochemical; set-up: species or system HEK293/K-562/placenta mixed human extract; Kinobeads chemoproteomic competition binding, quantified by TMT LC-MS/MS, dose response up to 20 uM
MAPK3 = MAPK3 (Homo sapiens, UniProt P27361); test: biochemical; set-up: species or system HEK293/K-562/placenta mixed human extract; Kinobeads chemoproteomic competition binding, quantified by TMT LC-MS/MS, dose response up to 20 uM
JAK3 = JAK3 (Homo sapiens, UniProt P52333); test: biochemical; set-up: species or system HEK293/K-562/placenta mixed human extract; Kinobeads chemoproteomic competition binding, quantified by TMT LC-MS/MS, dose response up to 20 uM
SIK2 = SIK2 (Homo sapiens, UniProt Q9H0K1); test: biochemical; set-up: species or system HEK293/K-562/placenta mixed human extract; Kinobeads chemoproteomic competition binding, quantified by TMT LC-MS/MS, dose response up to 20 uM
MAP3K15 = MAP3K15 (Homo sapiens, UniProt Q6ZN16); test: biochemical; set-up: species or system HEK293/K-562/placenta mixed human extract; Kinobeads chemoproteomic competition binding, quantified by TMT LC-MS/MS, dose response up to 20 uM
CDC42BPG = CDC42BPG (Homo sapiens, UniProt Q6DT37); test: biochemical; set-up: species or system HEK293/K-562/placenta mixed human extract; Kinobeads chemoproteomic competition binding, quantified by TMT LC-MS/MS, dose response up to 20 uM

T1 sequence (O96017 whole entry): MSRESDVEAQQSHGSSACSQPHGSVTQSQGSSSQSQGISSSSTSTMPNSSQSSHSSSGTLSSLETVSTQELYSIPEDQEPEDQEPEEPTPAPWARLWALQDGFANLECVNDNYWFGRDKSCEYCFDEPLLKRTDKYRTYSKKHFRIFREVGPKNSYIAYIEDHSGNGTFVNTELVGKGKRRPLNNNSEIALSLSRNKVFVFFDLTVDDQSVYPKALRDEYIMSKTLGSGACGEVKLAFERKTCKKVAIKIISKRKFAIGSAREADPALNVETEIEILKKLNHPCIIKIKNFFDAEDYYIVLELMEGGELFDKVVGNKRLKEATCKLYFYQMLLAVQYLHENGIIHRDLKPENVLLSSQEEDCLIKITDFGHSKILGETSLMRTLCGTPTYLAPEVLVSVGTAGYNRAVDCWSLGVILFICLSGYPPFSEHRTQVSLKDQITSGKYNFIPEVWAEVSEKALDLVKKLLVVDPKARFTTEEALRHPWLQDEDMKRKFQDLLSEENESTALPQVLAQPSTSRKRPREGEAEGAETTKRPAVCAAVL
CSNK1E, sequence (P49674 whole entry): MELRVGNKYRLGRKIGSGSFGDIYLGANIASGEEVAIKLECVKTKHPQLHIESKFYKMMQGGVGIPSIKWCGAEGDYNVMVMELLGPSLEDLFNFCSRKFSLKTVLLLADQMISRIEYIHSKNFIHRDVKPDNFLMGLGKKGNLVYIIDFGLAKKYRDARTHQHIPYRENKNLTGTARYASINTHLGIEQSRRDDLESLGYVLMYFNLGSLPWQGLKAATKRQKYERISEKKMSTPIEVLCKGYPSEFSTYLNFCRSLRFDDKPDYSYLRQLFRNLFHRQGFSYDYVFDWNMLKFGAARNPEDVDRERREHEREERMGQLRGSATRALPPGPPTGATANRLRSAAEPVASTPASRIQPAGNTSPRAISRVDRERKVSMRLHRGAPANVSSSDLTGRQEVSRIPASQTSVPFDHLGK
SIK2, sequence (Q9H0K1 whole entry): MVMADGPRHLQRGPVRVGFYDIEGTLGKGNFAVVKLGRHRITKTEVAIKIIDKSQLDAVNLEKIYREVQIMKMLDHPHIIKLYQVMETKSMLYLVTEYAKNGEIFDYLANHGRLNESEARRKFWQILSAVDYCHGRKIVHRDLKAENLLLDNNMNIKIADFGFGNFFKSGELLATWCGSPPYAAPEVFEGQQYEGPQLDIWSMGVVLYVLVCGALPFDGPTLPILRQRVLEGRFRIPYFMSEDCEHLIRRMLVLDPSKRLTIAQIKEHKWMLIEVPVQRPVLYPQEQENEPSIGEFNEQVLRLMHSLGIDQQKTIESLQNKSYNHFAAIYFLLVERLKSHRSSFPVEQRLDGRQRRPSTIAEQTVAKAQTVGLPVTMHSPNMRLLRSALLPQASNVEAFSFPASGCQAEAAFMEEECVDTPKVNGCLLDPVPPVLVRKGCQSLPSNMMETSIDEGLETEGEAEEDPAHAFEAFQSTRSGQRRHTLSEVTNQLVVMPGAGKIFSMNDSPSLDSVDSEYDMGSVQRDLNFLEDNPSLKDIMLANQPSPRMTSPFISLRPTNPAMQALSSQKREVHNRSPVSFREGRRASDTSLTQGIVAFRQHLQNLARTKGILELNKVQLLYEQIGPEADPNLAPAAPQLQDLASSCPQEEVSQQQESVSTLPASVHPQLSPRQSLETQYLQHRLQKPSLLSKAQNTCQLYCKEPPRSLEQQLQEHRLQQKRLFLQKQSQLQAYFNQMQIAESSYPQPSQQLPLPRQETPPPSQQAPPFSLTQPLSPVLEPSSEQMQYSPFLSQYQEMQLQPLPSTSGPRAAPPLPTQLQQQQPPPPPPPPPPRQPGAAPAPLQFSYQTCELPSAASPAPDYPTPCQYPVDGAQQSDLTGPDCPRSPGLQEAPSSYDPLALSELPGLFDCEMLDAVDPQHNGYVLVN
JAK3, sequence (P52333 whole entry): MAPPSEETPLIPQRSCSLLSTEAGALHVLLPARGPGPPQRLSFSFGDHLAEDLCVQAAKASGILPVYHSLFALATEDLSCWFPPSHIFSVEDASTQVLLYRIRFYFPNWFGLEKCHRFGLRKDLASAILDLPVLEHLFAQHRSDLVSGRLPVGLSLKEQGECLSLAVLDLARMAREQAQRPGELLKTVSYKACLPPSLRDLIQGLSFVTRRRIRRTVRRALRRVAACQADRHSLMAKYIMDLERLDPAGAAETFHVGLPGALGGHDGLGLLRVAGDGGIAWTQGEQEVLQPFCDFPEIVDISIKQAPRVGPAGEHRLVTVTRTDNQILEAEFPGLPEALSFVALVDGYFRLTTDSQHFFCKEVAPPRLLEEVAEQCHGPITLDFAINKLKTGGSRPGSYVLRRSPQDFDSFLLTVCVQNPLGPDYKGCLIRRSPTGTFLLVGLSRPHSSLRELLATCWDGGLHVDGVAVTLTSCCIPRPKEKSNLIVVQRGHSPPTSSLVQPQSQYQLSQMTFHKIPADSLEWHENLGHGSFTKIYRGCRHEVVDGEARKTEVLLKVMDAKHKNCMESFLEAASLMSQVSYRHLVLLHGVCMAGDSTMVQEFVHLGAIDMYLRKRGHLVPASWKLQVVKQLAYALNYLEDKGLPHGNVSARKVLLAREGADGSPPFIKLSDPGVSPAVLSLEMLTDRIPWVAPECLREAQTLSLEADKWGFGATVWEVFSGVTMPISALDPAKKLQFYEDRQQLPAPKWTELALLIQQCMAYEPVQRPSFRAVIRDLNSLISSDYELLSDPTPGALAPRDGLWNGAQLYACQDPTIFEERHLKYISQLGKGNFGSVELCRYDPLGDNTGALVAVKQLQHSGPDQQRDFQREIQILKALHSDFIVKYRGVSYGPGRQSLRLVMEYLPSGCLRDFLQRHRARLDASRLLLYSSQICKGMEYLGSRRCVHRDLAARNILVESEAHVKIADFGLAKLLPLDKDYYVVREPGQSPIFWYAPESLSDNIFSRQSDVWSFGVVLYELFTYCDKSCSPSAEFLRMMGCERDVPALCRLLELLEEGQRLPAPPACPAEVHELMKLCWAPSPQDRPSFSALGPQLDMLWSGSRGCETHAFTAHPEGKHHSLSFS
BMX, sequence (P51813 whole entry): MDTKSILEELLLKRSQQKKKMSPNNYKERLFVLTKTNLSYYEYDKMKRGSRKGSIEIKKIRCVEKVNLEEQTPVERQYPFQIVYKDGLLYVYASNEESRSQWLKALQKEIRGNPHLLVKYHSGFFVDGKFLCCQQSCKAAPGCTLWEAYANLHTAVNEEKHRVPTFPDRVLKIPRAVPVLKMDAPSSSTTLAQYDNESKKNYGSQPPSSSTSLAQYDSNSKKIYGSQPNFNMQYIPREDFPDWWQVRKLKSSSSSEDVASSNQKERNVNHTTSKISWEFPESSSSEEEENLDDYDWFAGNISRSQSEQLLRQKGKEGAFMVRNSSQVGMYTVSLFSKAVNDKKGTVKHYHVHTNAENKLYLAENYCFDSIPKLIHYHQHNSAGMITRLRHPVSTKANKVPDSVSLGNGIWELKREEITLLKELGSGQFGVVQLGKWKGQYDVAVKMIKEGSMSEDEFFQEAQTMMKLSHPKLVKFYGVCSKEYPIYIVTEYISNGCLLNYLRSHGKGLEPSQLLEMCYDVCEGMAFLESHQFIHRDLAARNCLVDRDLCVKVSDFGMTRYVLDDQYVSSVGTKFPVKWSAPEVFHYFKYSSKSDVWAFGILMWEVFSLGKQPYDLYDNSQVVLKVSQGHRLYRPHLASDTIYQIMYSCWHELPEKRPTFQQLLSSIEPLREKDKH
TNIK, sequence (Q9UKE5 whole entry): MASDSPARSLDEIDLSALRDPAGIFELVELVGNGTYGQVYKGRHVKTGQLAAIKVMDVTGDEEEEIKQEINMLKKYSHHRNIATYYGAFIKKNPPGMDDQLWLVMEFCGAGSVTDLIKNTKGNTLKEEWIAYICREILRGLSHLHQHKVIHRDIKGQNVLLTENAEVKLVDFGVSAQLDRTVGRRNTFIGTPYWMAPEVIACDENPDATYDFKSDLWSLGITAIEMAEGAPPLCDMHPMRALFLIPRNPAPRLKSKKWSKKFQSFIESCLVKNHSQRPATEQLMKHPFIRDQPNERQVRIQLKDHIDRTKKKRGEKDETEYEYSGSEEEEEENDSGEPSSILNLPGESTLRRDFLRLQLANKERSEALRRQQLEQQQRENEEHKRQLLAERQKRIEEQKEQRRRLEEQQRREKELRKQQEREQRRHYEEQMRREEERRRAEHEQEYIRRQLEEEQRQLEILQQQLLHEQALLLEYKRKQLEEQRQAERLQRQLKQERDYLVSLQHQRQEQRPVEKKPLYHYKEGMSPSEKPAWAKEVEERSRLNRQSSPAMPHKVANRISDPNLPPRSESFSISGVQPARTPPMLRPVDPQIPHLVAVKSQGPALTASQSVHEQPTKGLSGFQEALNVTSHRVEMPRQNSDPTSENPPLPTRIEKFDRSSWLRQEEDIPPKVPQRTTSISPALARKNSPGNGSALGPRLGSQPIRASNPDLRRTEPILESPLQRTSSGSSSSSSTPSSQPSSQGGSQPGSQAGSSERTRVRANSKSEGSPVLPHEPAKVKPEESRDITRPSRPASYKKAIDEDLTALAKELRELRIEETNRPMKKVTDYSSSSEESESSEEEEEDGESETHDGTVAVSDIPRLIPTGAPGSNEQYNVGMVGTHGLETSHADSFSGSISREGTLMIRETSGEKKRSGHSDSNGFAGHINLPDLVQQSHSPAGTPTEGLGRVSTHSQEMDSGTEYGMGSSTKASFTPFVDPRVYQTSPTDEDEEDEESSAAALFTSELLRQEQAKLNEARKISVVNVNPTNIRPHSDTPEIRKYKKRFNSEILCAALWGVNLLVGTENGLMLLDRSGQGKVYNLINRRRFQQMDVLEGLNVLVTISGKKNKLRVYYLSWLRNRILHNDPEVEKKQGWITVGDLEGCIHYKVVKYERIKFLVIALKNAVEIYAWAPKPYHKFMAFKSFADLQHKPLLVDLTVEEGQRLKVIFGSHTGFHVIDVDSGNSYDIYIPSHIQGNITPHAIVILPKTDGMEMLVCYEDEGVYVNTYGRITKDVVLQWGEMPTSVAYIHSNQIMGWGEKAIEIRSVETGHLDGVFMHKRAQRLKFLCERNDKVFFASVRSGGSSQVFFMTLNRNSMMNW

IC50 (CSNK1E): 7.7 µM
IC50 (MAPKAPK5): 3 µM
IC50 (STK38L): ≥ 20 µM
IC50 (CDC7): ≥ 20 µM
IC50 (CHEK2 [1]): ≥ 20 µM
IC50 (CIT): ≥ 20 µM
SMILES: COc1ccccc1-c1n[nH]c2nc(N[C@H]3CC[C@H](NS(=O)(=O)CCC(F)(F)F)CC3)nc(OC)c12 [compound 31, 3,3,3-Trifluoro-N-(trans-4-((4-methoxy-3-(2-methoxyphenyl)-1H-pyrazolo[3,4-d]pyrimidin-6-yl)amino)cyclohexyl)propane-1-sulfonamide]

SMILES: COc1nc(N[C@H]2CC[C@H](NS(=O)(=O)CC(C)C)CC2)nc2[nH]nc(N3CCOC[C@H]3C)c12 [compound 39, N-(trans-4-((4-Methoxy-3-((R)-3-methylmorpholino)-1H-pyrazolo[3,4-d]pyrimidin-6-yl)amino)cyclohexyl)-2-methylpropane-1-sulfonamide]
IC50 (hERG): > 30 µM
IC50 (BMX): ≥ 20 µM
IC50 (MAP2K3): ≥ 20 µM
IC50 (TNK1): ≥ 20 µM
IC50 (TNIK): ≥ 20 µM
IC50 (FYN): ≥ 20 µM
IC50 (PKN1): ≥ 20 µM
IC50 (TYRO3): ≥ 20 µM
IC50 (CHEK2 [2]): ≥ 20 µM
IC50 (NEK6): ≥ 20 µM
IC50 (MAPK3): ≥ 20 µM
IC50 (JAK3): ≥ 20 µM
IC50 (SIK2): ≥ 20 µM
IC50 (MAP3K15): ≥ 20 µM
IC50 (CDC42BPG): ≥ 20 µM
